Laboratory results from patent US5428048A, “Aryl-N-hydroxyureas as inhibitors of 5-lipoxygenase and anto-arteriosclerotic agents” (American Home Products Corporation, priority 1993, dated 1995).

What was measured:
Lipoxygenase = assay: Ex-Vivo Measurement of Lipoxygenase Inhibition in Orally Dosed Rats (LTB4 in A23187-stimulated blood); design: species or system Male Sprague Dawley rats; settings: ex vivo rat, p.o.
Description: 2. […] After an interval of 3 or 6 hours, the rats were anesthetized with metofane (n =4/group) and blood collected in heparinized tubes. White blood cell counts and differentials were made. One ml of blood from each animal was placed in a 5 ml plastic tube in a shaker bath at 37° C. A23187 at a final concentration of 10 μM was added to the blood and the blood vortexed and incubated for 15 min at 37° C. with gentle shaking. Incubation was terminated by vortexing sample and centrifuging immediately at 1200 xG for 15 min at 4° C. The plasma was transferred to 15 ml plastic tubes each containing 8 ml of methanol to precipitate protein followed by vortexing. The samples were stored at -70° C. overnight and the next day the samples were centrifuged at 800 xG for 15 min to pellet the precipitate. The samples were dried in a Savant SpeedVac Concentrator Model SVC 200H and reconstituted to the original volume with cold RIA or ELISA buffer. The reconstituted samples were stored at -70° C. until assayed. The assay for LTB4 was perforated according to the directions of the [^3 H]RIA kit or ELISA kit (Seragen). The total metabolite level in 1 ml of blood is calculated and reported as ng/10^6 neutrophils. Significance is determined by a one-way analysis of variance with LSD comparisons to control (p<0.05).

[1] = test system: LT-dependent bronchoconstriction; assay: Inhibition of Bronchoconstriction in Guinea Pigs Induced by Exogenously Administered Antigen; format: in vivo, Male guinea pigs
Description: 4. Inhibition of Brochoconstriction in Guinea Pigs Induced by Exogenously Administered Antigen
Male guinea pigs (Charles River, Wilmington, Mass.) were sensitized 3-4 weeks prior to antigen challenge by administration of 2 i.m. injections of ovalbumin, 1 into each hind limb (35 mg total). Sensitized animals (500-600 g) were fasted overnight prior to experimentation. Conscious animals were then dosed p.o. with drug or vehicle alone (0.5% Tween 80 in H2 O) at the indicated times prior to antigen challenge, or anesthetized animals were dosed i.v. with drug or vehicle alone (DMSO) 5 min prior to antigen challenge. Animals were anesthetized by urethane (2.8 g/kg i.p.). A carotid artery and jugular vein were cannulated to allow for the monitoring of blood pressure and the administration of drugs, respectively. The trachea was then cannulated and connected to a Harvard Apparatus rodent ventilator (S. Natick, Mass.). Spontaneous respiration was abolished by the administration of succinylcholine (2.5 mg/kg i.v.). The animals were then ventilated with room air at a rate of 65 breaths per min. Airway inflation pressure was measured using a Statham pressure transducer (Gould Instruments, Cleveland, Ohio) connected to the tracheal cannula via a side-arm and recorded on a Grass Instruments recorder (Quincy, Mass.). The tidal volume (approximately 10 cc/kg) was adjusted to give a baseline inflation pressure of 8-10 cm H2 O at end inspiration. Animals were then allowed 20 min to stabilize.
Following the stabilization period, animals were given i.v. injections of pyrilamine (5 mg/kg), propranolol (0.1 mg/kg) and indomethacin (10 mg/kg) at 15, 10 and 5 min, respectively, prior to antigen challenge. This pretreatment results in an LT-dependent bronchoconstriction following antigert challenge, which was accomplished by i.v. administration of ovalbumin (10 mg/kg). Only one bronchoconstriction per animal was induced. End-inspiratory inflation pressure (in cm H2 O over baseline) was measured at 5 min post-antigen challenge. A mean value and standard error for the % inhibition of control bronchoconstriction in each drug-treated group was then calculated.

LTB4 Synthesis = assay: Reverse Passive Arthus Reaction (pleurisy, LTB4 in pleural exudate); format: in vivo, male Lewis rats
Description: 3. Reverse Passive Arthus Reaction
A reverse passive Arthus reaction is induced in the pleural cavity of male Lewis rats (150°-200 g; fasted overnight prior to use) by the intravenous administration of bovine serum albumin (BSA; 4 mg/0.2 ml) followed 30 minutes later by the injection of rabbit anti-BSA (1 mg/0.2 ml; lyophilized IgG fraction; Organon Teknika, West Chester, Pa.) into the right pleural space under halothane anesthesia. Drugs or vehicle (0.5% Tween-80) control are administered orally in a volume of 1 ml/100 g body weight at 1 hour prior to the anti-BSA. Animals are sacrificed at either the time of peak eicosanoid production (i.e. 5 minutes after anti-BSA for immunoreactive TxB2, 10 minutes for immunoreactive LTB4, 20 minutes for immunoreactive LTC4) or at the time of peak neutrophil infiltration (4 hours after anti-BSA) by CO2 inhalation. The pleural cavity is then exposed, the fluid exudate removed by gentle vacuum aspiration and the volume of exudate is recorded. For the determination of cellular infiltration, the pleural cavity is rinsed with 3 ml of 0.1% EDTA in sterile saline, and the recovered wash is pooled with the exudate. Cell number is determined on a model ZBI Coulter counter. For determination of eicosanoid production, undiluted pleural exudate is microfuged and the supernatant is extracted with ethanol (8-10 times volume). Extracts are either stored at -20° C., or are evaporated to dryness under a stream of N2 and reconstituted in radioimmunoassay (RIA) buffer.
Eicosanoids are quantitated by RIA according to the procedure specified by the RIA kit manufacturer (Advanced Magnetics, Cambridge, MA). Briefly, 100 μl of ^3 H-labeled eicosanoid and 100 μl of specific antibody ,are sequentially added to 100 μl of extracted pleural exudate in BGG-phosphate buffer which contains 0.01M phosphate, 0.1% bovine gamma globulin and 0.1% sodium azide at pH 7.0. Antibody-bound eicosanoid is separated from unbound eicosanoid by the addition of 750 μl of dextran (0.4%)-coated charcoal (Norit A) containing 0.1% sodium azide. The mixture is centrifuged at 2000 RPM at 5° C. for 15 minutes to pellet the charcoal and adsorbed unbound eicosanoid. Antibody-bound labeled eicosanoid is quantitated by counting in a liquid scintillation counter, and is correlated to concentration by a standard curve.

[2] = dose 25 (mg/kg), pretreatment 3 hr

Structure (SMILES) | % Inhibition of LTB4 (Lipoxygenase; dose 5 (mg/kg), pretreatment 6 hr) [%] | Bronchoconstriction % Inhibition ([1]; 10 mg/kg i.v.) [%] | Bronchoconstriction % Inhibition ([1]; 10 mg/kg p.o.) [%] | % Inhibition LTB4 Synthesis (LTB4 Synthesis; 25 mg/kg p.o.) [%] | % Inhibition of LTB4 (Lipoxygenase; [2]) [%] | Bronchoconstriction % Inhibition ([1]; 25 mg/kg aerosol) [%] | Bronchoconstriction % Inhibition ([1]; 20 mg/kg i.v.) [%] | Bronchoconstriction % Inhibition ([1]; 25 mg/kg p.o.) [%] | % Inhibition of LTB4 (Lipoxygenase; dose 1 (mg/kg), pretreatment 6 hr) [%] | % Inhibition LTB4 Synthesis (LTB4 Synthesis; 10 mg/kg p.o.) [%]
NC(=O)N(O)Cc1ccc(OCCc2noc(-c3ccccc3)n2)cc1 [Example 21, 1-hydroxy-1-[4-[2-(5-phenyl-[1,2,4]-oxadiazol-3-yl)-ethoxy]-benzyl]-urea] | 60 | 58 | 34 | 19 |  |  |  |  |  | 
Cc1oc(-c2ccccc2)nc1CCOc1ccc(C(C)N(O)C(N)=O)cc1 (centres unmarked) [Example 4] |  |  |  |  | 57 | 51 |  |  |  | 
Cc1oc(-c2ccccc2)nc1CCOc1ccc(CN(O)C(N)=O)cc1 [Example 1] |  |  |  | 35 | 79 | 67 | 66 | 25 |  | 
Cc1oc(-c2ccc(C(F)(F)F)cc2)nc1CCOc1ccc(CN(O)C(N)=O)cc1 [Example 13, 1-Hydroxy-1-[4-[2-[5-methyl-2(4-trifluoromethyl-phenyl)-oxazol-4-yl]-ethoxy]benzyl]-urea] |  |  |  |  |  |  | 23 |  | 50 | 91
